Test results: US8658826B2, “Amino acid derivatives used as pharmaceutical substances” (Dritte Patentportfolio Beteiligungsgesellschaft mgH & Co. KG, priority 2008, dated 2014)

Experiment: oral bioavailability study with rats: benzamidine plasma levels after oral valbenzamidoxime
Type: in vivo, rat
Details: oral 50 mg/kg
Experimental: For proving the resorption from the gastrointestinal tract and the subsequent reduction to benzamidine, the valbenamidoxime is orally administered to three rats. The metabolization of the ester into benzamidine in this case takes place in vivo as follows:
The anaesthesia was carried out using xylazine and ketamine. Both were administered by intramuscular injection. The silicone catheters were implanted in the vena jugularis and the arteria carotis. They have locally antithrombotic and anti-inflammatory properties, but are not systemically active. During the surgery, the eyes were protected with a cornea-protective ointment (Oculotect®), and 3-4 ml of Ringer lactate solution was applied subcutaneously for improving the postoperative energy supply. The animals were treated antiphlogistically (Finadyne®, 1 mg/kg of body weight) and antibiotically (Amoxicillin® 15%, 10 mg/kg of body weight) and postoperatively attended and kept warm until they woke up. The day after the surgery, the animals got Nutri Plus®, an energy paste (soy bean oil, molasses, cod-liver oil, meat extract, mineral premixture, vitamin premixture).
Male Wistar rats having an average weight of 200 g served as the test animals. The animals were kept individually in cages. Every second day they got concentrated food. […]
For separating the substances to be analyzed, the following HPLC method was used: […]

Compound: CC(C)C(N)C(=O)O/N=C(\N)c1ccccc1 (stereo not shown) [valbenzamidoxime]
- resorption of the prodrug after oral administration and metabolization into benzamidine: completely resorbed after oral administration and metabolized into the active form benzamidine
